Legend:
Aster-A = biological target: T1, Aster-A (Homo sapiens, UniProt Q96CP6); assay: Differential scanning fluorimetry (DSF), Aster-A; assay type: binding; details: maximal thermal shift
T1 construct: Aster-A(359-547); GST (PreScission-cleavable) (N, cleaved yes); made in house; host or cells: E. coli OverExpress C41
T1 sequence (Q96CP6 359-547): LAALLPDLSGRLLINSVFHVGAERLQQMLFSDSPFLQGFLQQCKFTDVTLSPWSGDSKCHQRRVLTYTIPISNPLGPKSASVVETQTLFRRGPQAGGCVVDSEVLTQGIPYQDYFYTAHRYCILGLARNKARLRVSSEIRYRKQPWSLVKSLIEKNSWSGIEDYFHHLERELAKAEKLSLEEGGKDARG
Excerpt: Protein expression constructs
Human ASTER domains of Aster-A(359-547), -B(364-552) and -C(318-504) were subcloned into a pGEX-6p-2rbs vector, thus introducing the cloning artifact ‘GPLGS’.3 The pGEX-6P-1-GST-OSBP(377- […]
a gift from James H. Hurley (University of California).4 The pHIS_2His6_Thrombin_STARD4(2-205;C75S) plasmid was a gift from Young Jun Im (Chonnam National University).5 STARD5A was a gift from Nicola Burgess-Brown (Addgene plasmid #42392; http://n2t.net/addgene:42392; […]
Protein expression and purification […]
vectors including an N-terminal PreScission-cleavable glutathione S-transferase (GST)-tag were expressed in Escherichia coli (E. coli) OverExpress C41 in Terrific Broth (TB) medium for 16 h at 18 °C after the induction with 0.1 mM isopropyl β-D-1-thiogalactopyranoside (IPTG). Cells were harvested at 3500 × g for 15 minutes and lysed by sonication in buffer containing 50 mM HEPES pH 7.5, 300 mM NaCl, 10 %v/v glycerol, 5 mM dithiothreitol (DTT), 0.1 %v/v Triton X-100 and protease inhibitor mix HP plus (Serva). The lysate was purified by affinity chromatography on a GSTrap FF column (Cytiva) using an ÄKTA Start (Cytiva) in buffer containing 50 mM HEPES pH 7.5, 300 mM NaCl, 10 %v/v glycerol, 5 mM DTT and 0.01 %v/v Triton X-100. The GST-tag was cleaved overnight on the column at 4 °C. […]

STARD4 = biological target: T2, STARD4 (Homo sapiens, UniProt Q96DR4, C75S); set-up: method as in Depta et al.[43]; details: data reproduced; ref Depta et al.[43]; read-out: STARD4 Kd,app (DSF); cited from earlier work
T2 construct: STARD4(2-205; C75S); made in house; host or cells: E. coli BL21(DE3)
T2 sequence (Q96DR4 2-205 C75S): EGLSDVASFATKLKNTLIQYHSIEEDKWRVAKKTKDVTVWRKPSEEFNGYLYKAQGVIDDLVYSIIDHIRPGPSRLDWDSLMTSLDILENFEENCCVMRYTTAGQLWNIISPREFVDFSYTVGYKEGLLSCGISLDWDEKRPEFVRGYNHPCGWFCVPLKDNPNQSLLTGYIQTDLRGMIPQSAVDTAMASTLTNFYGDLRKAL

SMILES | Aster-A (DSF) ΔTmmax (Aster-A) | Kd (STARD4)
CC12CCC3CC1CCC21C(=Nc2ccc(N4CCOCC4)cc21)O3 (single isomer, unassigned; (-)) [(−)-19a] | 7.5 °C | 
CC(C)(C)OC(=O)N1CCN(c2ccc3c(c2)C24CCC5CC(CCC52C)OC4=N3)CC1 (stereo not drawn) [Compound 19e] | 11.8 °C | 
CCN(CC)CCO[C@H]1CC[C@@]2(C)C(=CC[C@@H]3[C@@H]2CC[C@]2(C)C(=O)CC[C@@H]32)C1 [Compound U18666A, reference compound] |  | > 30 µM

From paper PMC11758220, “Identification of a Privileged Scaffold for Inhibition of Sterol Transport Proteins through the Synthesis and Ring Distortion of Diverse, Pseudo-Natural Products” (ACS Central Science, 2025)
